According to ChEMBL document CHEMBL1138277, “Synthesis and in vivo activity of MK2 and MK2 substrate-selective p38alpha(MAPK) inhibitors in Werner syndrome cells” (Bioorg Med Chem Lett, 2007):
pIC50: −log10 of the molar value. Active and inactive are the calls of the source. The rule behind the calls is not given here.

How the values were obtained:
[1] = target: T1, MAP kinase-activated protein kinase 2 (Homo sapiens, UniProt P49137); test: Inhibition of MK2 mediated HSP27 phosphorylation in immortalised WS cells assessed as reduction in F-actin stress fibres at 25 uM after 6 days; format: cell-based
Target sequence in this assay (P49137 whole entry, looked up): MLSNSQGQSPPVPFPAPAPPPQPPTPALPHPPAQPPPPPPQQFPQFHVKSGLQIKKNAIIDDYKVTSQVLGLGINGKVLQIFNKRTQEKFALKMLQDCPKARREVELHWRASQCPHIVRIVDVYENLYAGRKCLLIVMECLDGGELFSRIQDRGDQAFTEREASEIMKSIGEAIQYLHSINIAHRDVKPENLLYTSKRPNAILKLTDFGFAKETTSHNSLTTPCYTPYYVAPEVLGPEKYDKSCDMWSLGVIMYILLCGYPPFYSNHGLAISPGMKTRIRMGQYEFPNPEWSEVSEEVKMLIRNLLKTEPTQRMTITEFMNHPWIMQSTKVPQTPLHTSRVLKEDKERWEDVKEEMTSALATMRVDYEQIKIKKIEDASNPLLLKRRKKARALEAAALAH

[2] = target: T1, MAP kinase-activated protein kinase 2; test: Inhibition of MK2 in human TERT immortalised HCA2 cells assessed as inhibition of anisomycin-induced HSP27 phosphorylation by ELISA; format: cell-based
Target sequence in this assay (P49137 whole entry): as the sequence (P49137 whole entry, looked up) above

[3] = species on record: Homo sapiens; test: Inhibition of JNK
[4] = system: HCA2; test: Growth inhibition of HCA2 cells above 2.5 uM; format: functional, cell-based; conditions: Homo sapiens
[5] = target: T1, MAP kinase-activated protein kinase 2; test: Inhibition of MK2 mediated HSP27 phosphorylation in immortalised WS cells assessed as reduction in F-actin stress fibres; format: cell-based
Target sequence in this assay (P49137 whole entry, looked up): as above

[6] = system: WS; test: Growth inhibition of WS cells above 2.5 uM; format: functional, cell-based; conditions: Homo sapiens
[7] = target: T1, MAP kinase-activated protein kinase 2; test: Inhibition of MK2 in human TERT immortalised HCA2 cells assessed as maximal inhibition of anisomycin-induced HSP27 phosphorylation at 25 uM by ELISA; format: cell-based
Target sequence in this assay (P49137 whole entry, looked up): as above

[8] = target: MAP kinase p38 (Homo sapiens) (UniProt O15264+Q15759+Q16539+P53778); test: Inhibition of p38 mediated MK2 activation in HCA2 cells at 25 uM; format: cell-based
[9] = target: T1, MAP kinase-activated protein kinase 2; test: Inhibition of MK2 in human TERT immortalised HCA2 cells assessed as inhibition of anisomycin-induced HSP27 phosphorylation at 2.5 uM by ELISA; format: cell-based
[10] = system: WS; test: Growth inhibition of WS cells above 200 nM; format: functional, cell-based; conditions: Homo sapiens

Structure (SMILES)	Activity [1]	pIC50 [2]	Activity [3]	Activity [4]	Activity [5]	Activity [6]	Activity [7]	Activity [8]	Activity [9]	Ki app [9] [µM]	Activity [10]
N#Cc1c(N)nc2c(c1N)Cc1cc(O)c(O)cc1O2	Active	5.60	inactive	Active	Active	Active	Active	inactive	Active	–	–
C[S+]([O-])c1ccc(-c2nc(-c3ccc(F)cc3)c(-c3ccncc3)[nH]2)cc1 (stereo not drawn)	–	–	–	–	Active	–	–	–	–	–	–
O=C(CCCc1ccc(-c2ccccc2F)cc1)Nc1ccc(O)cc1	–	–	inactive	–	–	–	–	–	–	0.33	Active
